Measurements from patent US20250092001A1, “NOVEL EXCITATORY AMINO ACID GLUTAMATE TRANSPORT MODULATORS AND METHODS USING THE SAME” (Drexel University, priority 2022, published 2025).
Like-named read-outs stand apart in the source and are kept apart here.

How the values were obtained:
[1] = tested on: Drosophila model of Huntington's Disease (Htt model); experiment: Larval locomotion assay in Drosophila Huntington's disease model; assay type: in vivo; details: third instar larvae; concentrations as low as two-fold below EC50 and one-fold below EC50
From the text: FIG. 6A illustrate certain aspects of a locomotion assay used to assay the locomotive activities. […] FIGS. 6B and 6C depict the results of the locomotion assay results of wild-type Drosophila (“WT”), as well as Drosophila of a Huntington's disease model treated with vehicle (“Veh”) or with various concentrations of two exemplary GLT-1 modulators. […] The Drosophila Htt model is produced by crossing UAS-Htt([…]) male flies with elav-Gal4 virgin female flies. Both fly strains were purchased from Bloomington Drosophila Stock Center (BDSC, Indiana, USA). […] Locomotion assays were conducted by transferring the third instar larvae of flies to agar plates (FIG. 6A) and counting the number of grid lines crossed in 30 seconds.

[2] = tested on: PD rats (unilaterally lesioned rodent model of PD); experiment: 5-Choice Serial Reaction Time Task (5CSRTT); assay type: in vivo, rat; details: compared to saline
From the text: FIG. 12 lists the training schedule for 5CSRTT (5-Choice Serial Reaction Time Task) assay with criteria for success, in accordance with some embodiments.
FIG. 13: Schematic representation of the 5CSRTT assay, in accordance with some embodiments. Rats were trained to receive food reward for a correct nose poke response to a signal light (correct trial shown in arrow connecting 1 and 3). Incorrect trials (the arrows connecting 2/3 to 1) or omissions (the arrow connecting 4 to other boxes) results in time out indicated by darkness with no Cue lights. Trial resets with variable intertrial intervals. Nose pokes made during inter trial interval (ITI) are recorded as premature responses (PMR) that codes for impulsive behavior

[3] = Pharmacokinetics of GT467 and GT511 in rats, plasma and brain (IV, IP, PO); assay type: in vivo, rat; details: for AUC0-t: 0 to 24 hrs
Procedure: Pharmacokinetics (PK) study for GT951 was conducted at Melior Discovery Services (Exton, PA). Fifteen male CD-1 mice 23-50 g was used for the study and the mice were housed 3 per cage. PK studies for GT467 and GT511 were conducted at Piramal Pharma solutions under approved protocols (Pune, India). One hundred and sixty-eight male Wistar rats were used for the study and housed 4 per cage. All animals were maintained on a standard 12 h light cycle and given free access to water and standard rodent chow. Food and water were available ad libitum. Animals were not fasted for any portion of the study and animals were acclimated to the animal care facility for seven days prior to the start of the experiment. The holding room and procedure room temperature was 21-23° C. and humidity was at 40-45% during the experiment (within the normal range of the care facility). All procedures were completed according to Institutional Animal Care and Use Committee (IACUC) approved protocols for housing and for PK studies.
Rats were dosed with the drug and blood and brain samples were collected at 0.5, 1, 2, 4, 8 and 24 h time points. Blood was collected via the sub-lingual vein under anesthesia into tubes containing Na2EDTA as an anticoagulant. Plasma fraction was separated by centrifuging the samples at 10,000 rpm for 5 min and the plasma was transferred to a cryo tube and stored at −80 C. Animals were euthanized and the brain was rapidly removed on ice and weighed. Brain was homogenized in Milli Q water and the homogenate was stored at −80 C until further use. Bioanalysis of the samples was performed using the SCIEX QTRAP 5500 LCMS/MS system with Phenomenex synergy C18 column and carbamazepine as internal standard. A methanol extraction procedure was used to precipitate the proteins in the sample. In addition to the internal standards, drug free plasma and brain samples were prepared for calibration and quantification standards. All samples were within the detectable range of the standard curves. 50 μl of the sample was added to 200 μl of the working solution of the internal standard and centrifuged for 5 min at 10,000 rpm. 60 μl of the supernatant was added to 140 μl of water and mixed well prior to transferring them for quantitative analysis on LCMS.
Specifically, rats were administered with GT467 or GT511 intraperitoneally (IP), intravenously (IV) or orally (PO). The concentration of the administered compounds measured at various timepoints in the plasma are depicted in FIGS. 4A and 4B, the concentrations of the administered compounds measured at various timepoints in the brain are depicted in FIGS. 5A and 5B.
Furthermore, pharmacokinetic parameters such as the peak concentration (Cmax), the time to reach the peak concentration (Tmax), the area under curve from time 0 to T (i.e., 24 hrs) (AUC0-t), the area under curve from time 0 to infinite (AUC0-∞), the half-life (t1/2), the oral clearance (CL/F), the volume of distribution of drug observed (Vz_F_obs), and the percentage of bioavailability (% Bioavailability) were also measured or calculated.

NR2A, NR2B, NR1 = experiment: Western blot of cortex and striatum of treated PD rats: NMDA receptor subunits; assay type: in vivo, rat
Procedure: Cortex and striatum were separately collected, and homogenates were prepared. Homogenates were centrifuged to obtain the protein extract in membrane and cytoplasmic fraction. Protein was estimated for each individual samples. Protein lysates were mixed with 6× loading buffer (5:1 ratio) and were heated (95° C. for 5 min). 20 μg protein was loaded to Tris-Glycine Mini gel for separation at […] for 2 h. Separated proteins were transferred to a PVDF membrane. 3% BSA was used for blocking the nontarget proteins to avoid noise. Membrane was incubated with primary Ab overnight at 4° C. followed by secondary Ab incubation for 3 h at room temperature. The protein bands were detected using ECL methods. The bands were quantified using Image J software.

[4] = male, Wistar, rat plasma, IP 10 mg/kg
[5] = male, Wistar, rat plasma, IV 5 mg/kg
[6] = male, Wistar, rat plasma, PO 10 mg/kg

- AUC(0-inf) [3, 4]: 556 ng·h/mL
- Cmax [3, 4]: 262 ng/mL
- AUC0-t ([3]; male, Wistar, rat plasma, IP 10 mg/kg, read-out: AUC0-t): 537 ng·h/mL
- CL/F ([3]; male, Wistar, rat plasma, IP 10 mg/kg, read-out: CL/F (converted)): 302 mL/min/kg
- AUC(0-inf) [3, 5]: 321 ng·h/mL
- Cmax [3, 5]: 307 ng/mL
- AUC0-t ([3]; male, Wistar, rat plasma, IV 5 mg/kg, read-out: AUC0-t): 316 ng·h/mL
- AUC(0-inf) [3, 6]: 798 ng·h/mL
- Cmax [3, 6]: 204 ng/mL
- AUC0-t ([3]; male, Wistar, rat plasma, PO 10 mg/kg, read-out: AUC0-t): 507 ng·h/mL
- CL/F ([3]; male, Wistar, rat plasma, PO 10 mg/kg, read-out: CL/F (converted)): 299 mL/min/kg
- AUC0-∞ ([3]; rat brain, IP 10 mg/kg): 4442.19 ng·h/g
- Tmax ([3]; rat brain, IP 10 mg/kg): 30 min
- t1/2 ([3]; rat brain, IP 10 mg/kg): 97.2 min
- AUC0-t ([3]; rat brain, IP 10 mg/kg): 4414.35 ng·h/g
- AUC0-∞ ([3]; rat brain, IV 5 mg/kg): 2015.59 ng·h/g
- Tmax ([3]; rat brain, IV 5 mg/kg): 30 min
- t1/2 ([3]; rat brain, IV 5 mg/kg): 61.8 min
- AUC0-t ([3]; rat brain, IV 5 mg/kg): 1959.70 ng·h/g
- AUC0-∞ ([3]; rat brain, PO 10 mg/kg): 3080.18 ng·h/g
- Tmax ([3]; rat brain, PO 10 mg/kg): 52.8 min
- t1/2 ([3]; rat brain, PO 10 mg/kg): 109 min
- AUC0-t ([3]; rat brain, PO 10 mg/kg): 2816.80 ng·h/g
- % Bioavailability ([3]; rat plasma, IP 10 mg/kg): 85.03%
- Tmax ([3]; rat plasma, IP 10 mg/kg): 30 min
- Vz_F_obs ([3]; rat plasma, IP 10 mg/kg): 26.470969 L/kg
- t1/2 ([3]; rat plasma, IP 10 mg/kg): 60.96 min
- CL/F ([3]; rat plasma, IV 5 mg/kg): 273.17875 mL/min/kg
- Tmax ([3]; rat plasma, IV 5 mg/kg): 30 min
- Vz_F_obs ([3]; rat plasma, IV 5 mg/kg): 16.170403 L/kg
- t1/2 ([3]; rat plasma, IV 5 mg/kg): 39.1 min
- % Bioavailability ([3]; rat plasma, PO 10 mg/kg): 80.34%
- Tmax ([3]; rat plasma, PO 10 mg/kg): 52.5 min
- Vz_F_obs ([3]; rat plasma, PO 10 mg/kg): 95.358274 L/kg
- t1/2 ([3]; rat plasma, PO 10 mg/kg): 285.8 min
SMILES: COc1ccc(NC(=O)C(=O)NCC(c2ccccc2)N2CCN(C)CC2)cc1 (stereo not drawn) [GT467, N1-(4-methoxyphenyl)-N2-(2-(4-methylpiperazin-1-yl)-2-phenylethyl)oxalamide]
- Locomotor ability (grid lines crossed in 30 seconds) [1]: restores the Huntington's disease model flies' locomotor ability
- Omissions (OM) [2]: trend towards reducing omissions
- Percentage of correct choices (CR), cognitive performance [2]: improves cognitive performance
- Premature responses (PMR), impulsivity [2]: reduces impulsivity
- Plasma concentration and brain concentration by route of administration ([3]; rats, IP, IV, PO): high plasma concentration and brain concentration
- NR1 expression (NR2A, NR2B, NR1; cortex (CRTX)): reduced in CRTX
- NR2A, 2B and NR1 expressions (NR2A, NR2B, NR1; synaptic level): elevation of NR2A, 2B and NR1 expressions
